Structures can show the parent of a compound that is named as a salt.
Legend:
[1] = molecular target: human CCR5 stably over-expressing CHO cell (CCR5/CHO cell) (Homo sapiens, UniProt P51681); experiment: Inhibition test on the binding of RANTES to CCR5 (RANTES-induced transient increase of Ca ion); format: cell-based; settings: inhibition of Ca2+ transient increase induced by 10 nM recombinant human RANTES in CCR5/CHO cells
Method: (1) Isolation of Human CCR5 Gene
Human placental cDNA was prepared using Marathon cDNA amplification kit (Clontech). PCR primers hCCR5XbaI-F1: 5′-[sequence]-3′ (SEQ ID NO:1) and hCCR5XbaI-R1: 5′-[sequence]-3′ (SEQ ID NO:2) were designed based on the sequence of GenBank U54994.
Using the human placental cDNA as the template and using Ex Taq (Takara), PCR reaction (2 minutes at 95° C.→(30 seconds at 95° C., 45 seconds at 60° C., 1 minute at 72° C.)×35 times) was carried out. The thus amplified PCR product was subjected to a 1% agarose gel electrophoresis, purified using QIAquick Gel Extraction Kit (QUIAGEN) and then digested with a restriction enzyme XbaI. […] By preparing the resulting plasmid pEF-BOS-bsr/hCCR5, its DNA sequence was verified. […]
The thus established human CCR5 stably over-expressing CHO cell (CCR5/CHO cell) was suspended in Ham's F-12 medium containing FBS (10%) and dispensed in 3.0×10^6 cells/well portions into a 96 well plate. […] Transient increase in the intracellular Ca^2+ concentration induced by the human RANTES was measured using a Ca^2+ detector for 96 well use (Hamamatsu Photonics), and inhibition ratio (%) of the test compound was calculated by the following calculation formula. Inhibition ratio=(Ec−Ea)/Ec×100 • Ec: measured value of Ca^2+ transient increase by RANTES • Ea: measured value of Ca^2+ transient increase by RANTES when a test compound was added

[2] = molecular target: T1, human CCR2-expressing cell, human monocyte cell strain THP-1 (Homo sapiens, UniProt P41597); experiment: Inhibition test on the binding of MCP-1 to CCR2 (MCP-1-induced transient increase of Ca ion); format: cell-based; settings: inhibition of Ca2+ transient increase induced by 30 nM recombinant human MCP-1 in THP-1 cells
T1 construct: A human CCR2-expressing cell, e.g., a human monocyte cell strain THP-1 (ATCC No. TIB-202); host or cells: THP-1
T1 sequence (P41597 1-360 isoform P41597-2): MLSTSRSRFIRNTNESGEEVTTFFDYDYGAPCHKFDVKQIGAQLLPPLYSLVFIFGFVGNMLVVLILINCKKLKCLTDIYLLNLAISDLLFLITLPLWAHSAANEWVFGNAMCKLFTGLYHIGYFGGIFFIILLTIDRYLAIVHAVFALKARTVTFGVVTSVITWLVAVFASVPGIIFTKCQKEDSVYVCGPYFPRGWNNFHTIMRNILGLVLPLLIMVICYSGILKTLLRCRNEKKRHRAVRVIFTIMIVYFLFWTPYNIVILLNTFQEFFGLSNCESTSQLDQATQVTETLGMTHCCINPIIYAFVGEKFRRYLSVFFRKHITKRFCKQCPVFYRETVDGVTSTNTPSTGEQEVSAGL
Excerpt: An assay system for finding a compound having adsorption inhibition effect on CCR5 directional HIV strain was described in the foregoing, and it is possible as a matter of course to find a compound capable of inhibiting the activity of CCR5 or a ligand thereof using this system. In the same manner, it is possible to find a compound capable of inhibiting the activity of other chemokine receptor or a ligand thereof. For example, a system for finding a compound capable of inhibiting the activity of CCR2 or a ligand thereof can be constructed. […]
A human CCR2-expressing cell, e.g., a human monocyte cell strain THP-1 (ATCC No. TIB-202), was suspended in RPMI 1640 medium containing FBS (10%), Fura-2AM (5 μM), Probenecid (2.5 mM) and HEPES (20 mM, pH 7.4) to a density of 5.0×10^6 cells/ml and incubated at 37° C. for 30 minutes under shaded condition. […] Transient increase in the intracellular Ca 2+concentration induced by the human MCP-1 was measured using a Ca^2+ detector for 96 well use (Hamamatsu Photonics), and inhibition ratio (%) of the test compound was calculated by the following calculation formula. Inhibition ratio=(Ec−Ea)/Ec×100 • Ec: measured value of Ca^2+ transient increase by MCP-1 • Ea: measured value of Ca^2+ transient increase by MCP-1 when a test compound was added

human CCR5 stably over-expressing CHO cell (CCR5/CHO cell), sequence (P51681 whole entry): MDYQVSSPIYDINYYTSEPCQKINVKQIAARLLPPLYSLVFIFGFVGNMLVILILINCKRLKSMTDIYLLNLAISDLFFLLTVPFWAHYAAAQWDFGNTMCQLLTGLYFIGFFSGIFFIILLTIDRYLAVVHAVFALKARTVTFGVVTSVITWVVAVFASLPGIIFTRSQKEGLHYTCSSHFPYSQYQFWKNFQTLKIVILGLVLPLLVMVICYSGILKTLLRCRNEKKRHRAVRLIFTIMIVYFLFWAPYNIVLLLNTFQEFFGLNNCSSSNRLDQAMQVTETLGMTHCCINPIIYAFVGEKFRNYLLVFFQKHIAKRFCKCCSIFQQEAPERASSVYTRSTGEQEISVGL

IC50 [1] [nM] | IC50 [2] [nM] | Structure (SMILES)
50 |  | CCCCN1C(=O)C(CC2CCCCC2)NC(=O)C12CCN(Cc1ccc3c(c1)OCCO3)CC2 (stereo not drawn) [Example 2(1), 9-(1,4-benzodioxan-6-ylmethyl)-1-butyl-3-cyclohexylmethyl-2,5-dioxo-1,4,9-triazaspiro[5.5]undecane.hydrochloride]
50 |  | CCCCN1C(=O)C(CC2CCCCC2)NC(=O)C12CCN(Cc1c[nH]c(-c3ccccc3)n1)CC2 (stereo not drawn) [Example 2(2), 1-butyl-3-cyclohexylmethyl-2,5-dioxo-9-(2-phenylimidazol-4-ylmethyl)-1,4,9-triazaspiro[5.5]undecane.2 hydrochloride]
 | 3000 | CCCN1C(=O)[C@H](CCCCNC(=O)OCc2ccccc2)NC(=O)C12CCN(CCc1ccccc1)CC2 [Example 5(2), (3S)-1-propyl-2,5-dioxo-3-(4-(N-benzyloxycarbonyl)aminobutyl)-9-(2-phenylethyl)-1,4,9-triazaspiro[5.5]undecane.hydrochloride]
